Assay results reported in patent publication US20230085307A1, “PYRIDAZINONE COMPOUND AND HERBICIDE” (NISSAN CHEMICAL CORPORATION, priority 2019, published 2023).

Columns and labels:
wild oat = assay: Test Example 4: herbicidal effect by soil treatment (Table 19, symbol I); type: in vivo, wild oat (Avena fatua)
Procedure, shortened: (§1)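 Emulsion of test compound, water-diluted to predetermined amount, sprayed on soil after sowing (seed depth ~1.5 cm, sterilized diluvial soil). Greenhouse, 25–30° C. Effect graded at three weeks post-spray.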

barnyard grass = assay: Test Example 3: herbicidal effect by foliage application, Wagner pot (Table 18, symbol H); type: in vivo, barnyard grass (Echinochloa crus-galli)
Procedure, shortened: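 Plants were sown in alluvial soil held under 0.1–0.5 cm standing water and grown 14 days in a greenhouse at 25–30 °C. An emulsifiable formulation, water-diluted to the set dose, was then sprayed onto the foliage, and effects were scored three weeks later using previously defined criteria.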

chickweed = assay: Test Example 4: herbicidal effect by soil treatment (Table 19, symbol P); type: in vivo, common chickweed (Stellaria media)
Procedure, shortened: as §1

velvetleaf = assay: Test Example 4: herbicidal effect by soil treatment (Table 19, symbol M); type: in vivo, velvetleaf (Abutilon theophrasti)
Procedure, shortened: as §1

persian speedwell = assay: Test Example 4: herbicidal effect by soil treatment (Table 19, symbol R); type: in vivo, Persian speedwell (Veronica persica)
Procedure, shortened: as §1

late watergrass [1] = assay: Test Example 2: herbicidal activity, application during weed generation under submerged conditions (Table 17, symbol A); type: in vivo, late watergrass (Echinochloa oryzicola); details: application during weed generation, submerged conditions
Procedure, shortened: (§2)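 Herbicide emulsion, diluted with water to the chosen amount, is applied onto 4 cm floodwater over alluvial soil where the weeds were co-sown and raised at 25–30° C. Application timing: 1–2 leaves. Assessment: three weeks afterwards.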

green foxtail = assay: Test Example 5: herbicidal effect by foliage application, plastic box (Table 20, symbol G); type: in vivo, green foxtail (Setaria viridis); details: foliage application, three weeks after application
Procedure, shortened: (§3)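 Post-emergence foliar test in sterilized diluvial soil. Compound applied as water-diluted emulsion at a predetermined rate to 14-day-old plants; evaluation at three weeks.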

Japanese bulrush = assay: Test Example 1: herbicidal activity, application before weed generation under submerged conditions (Table 16, symbol B); type: in vivo, Japanese bulrush (Schoenoplectus juncoides)
Procedure, shortened: (§4)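 Submerged Wagner pots (alluvial soil, 4 cm water) sown with weed seeds and planted with 2.5-leaf rice seedlings; emulsifiable concentrate diluted in water applied to water surface on sowing day. Held in greenhouse at 25-30 °C; injury scored 0-5 by herbicidal rate after three weeks.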

southern crabgrass [2] = assay: Test Example 5: herbicidal effect by foliage application, plastic box (Table 20, symbol F); type: in vivo, southern crabgrass (Digitaria ciliaris); details: foliage application, three weeks after application
Procedure, shortened: as §3

oval-leafed pondweed [3] = assay: Test Example 1: herbicidal activity, application before weed generation under submerged conditions (Table 16, symbol C); type: in vivo, oval-leafed pondweed (Monochoria vaginalis)
Procedure, shortened: as §4

redroot pigweed [4] = assay: Test Example 5: herbicidal effect by foliage application, plastic box (Table 20, symbol N); type: in vivo, redroot pigweed (Amaranthus retroflexus); details: foliage application, three weeks after application
Procedure, shortened: as §3

windgrass = assay: Test Example 4: herbicidal effect by soil treatment (Table 19, symbol L); type: in vivo, windgrass (Apera spica-venti)
Procedure, shortened: as §1

oval-leafed pondweed [5] = assay: Test Example 2: herbicidal activity, application during weed generation under submerged conditions (Table 17, symbol C); type: in vivo, oval-leafed pondweed (Monochoria vaginalis); details: application during weed generation, submerged conditions
Procedure, shortened: as §2

late watergrass [6] = assay: Test Example 1: herbicidal activity, application before weed generation under submerged conditions (Table 16, symbol A); type: in vivo, late watergrass (Echinochloa oryzicola)
Procedure, shortened: as §4

redroot pigweed [7] = assay: Test Example 4: herbicidal effect by soil treatment (Table 19, symbol N); type: in vivo, redroot pigweed (Amaranthus retroflexus)
Procedure, shortened: as §1

false cleavers = assay: Test Example 4: herbicidal effect by soil treatment (Table 19, symbol Q); type: in vivo, false cleavers (Galium spurium)
Procedure, shortened: as §1

southern crabgrass [8] = assay: Test Example 4: herbicidal effect by soil treatment (Table 19, symbol F); type: in vivo, southern crabgrass (Digitaria ciliaris)
Procedure, shortened: as §1

[9] = amount of applied herbicide 320 g/ha
[10] = amount of applied herbicide 224 g/ha
[11] = amount of applied herbicide 304 g/ha

CCCC(=O)Oc1c(C)nn(C)c(=O)c1-c1c(-c2ccccc2OCC)sc2cc(F)ccc12 [3-007]
herbicidal effect, I: wild oat (wild oat; [9]): 2 (Herbicidal rate of 20% or more and less than 40%)
herbicidal effect on H: barnyard grass (barnyard grass; [9]): 5 (Herbicidal rate of 90% or more (almost completely withered))
herbicidal effect, P: chickweed (chickweed; [9]): 5 (Herbicidal rate of 90% or more (almost completely withered))
herbicidal effect, M: velvetleaf (velvetleaf; [9]): 4 (Herbicidal rate of 70% or more and less than 90%)
herbicidal effect, R: persian speedwell (persian speedwell; [9]): 4 (Herbicidal rate of 70% or more and less than 90%)
herbicidal effect rating, A: late watergrass (late watergrass [1]; AAH 320 g/ha): 3 (Herbicidal rate of 40% or more and less than 70%)
G: green foxtail, herbicidal effect grade (green foxtail; 320 g/ha): 5 (Herbicidal rate of 90% or more (almost completely withered))
Herbicidal effect, B: Japanese bulrush (Japanese bulrush; [9]): 5 (Herbicidal rate of 90% or more (almost completely withered))
F: southern crabgrass, herbicidal effect grade (southern crabgrass [2]; 320 g/ha): 5 (Herbicidal rate of 90% or more (almost completely withered))
Herbicidal effect, C: oval-leafed pondweed (oval-leafed pondweed [3]; [9]): 4 (Herbicidal rate of 70% or more and less than 90%)
N: redroot pigweed, herbicidal effect grade (redroot pigweed [4]; 320 g/ha): 5 (Herbicidal rate of 90% or more (almost completely withered))
herbicidal effect, L: windgrass (windgrass; [9]): 5 (Herbicidal rate of 90% or more (almost completely withered))
herbicidal effect rating, C: oval-leafed pondweed (oval-leafed pondweed [5]; AAH 320 g/ha): 4 (Herbicidal rate of 70% or more and less than 90%)
Herbicidal effect, A: late watergrass (late watergrass [6]; [9]): 5 (Herbicidal rate of 90% or more (almost completely withered))
herbicidal effect, N: redroot pigweed (redroot pigweed [7]; [9]): 4 (Herbicidal rate of 70% or more and less than 90%)
herbicidal effect, Q: false cleavers (false cleavers; [9]): 5 (Herbicidal rate of 90% or more (almost completely withered))
herbicidal effect, F: southern crabgrass (southern crabgrass [8]; [9]): 4 (Herbicidal rate of 70% or more and less than 90%)

CCCC(=O)Oc1c(C)nn(C)c(=O)c1-c1c(-c2ccccc2OC)sc2cc(C)ccc12 [3-050]
I: wild oat, herbicidal effect grade (wild oat; [10]): 0 (Herbicidal rate of 5% or less (almost no effect))
herbicidal effect on barnyard grass (H) (barnyard grass; 224 g/ha): 4 (Herbicidal rate of 70% or more and less than 90%)
P: chickweed, herbicidal effect grade (chickweed; [10]): 3 (Herbicidal rate of 40% or more and less than 70%)
M: velvetleaf, herbicidal effect grade (velvetleaf; [10]): 0 (Herbicidal rate of 5% or less (almost no effect))
R: persian speedwell, herbicidal effect grade (persian speedwell; [10]): 1 (Herbicidal rate of 5% or more and less than 20%)
herbicidal effect rating, A: late watergrass (late watergrass [1]; AAH 224 g/ha): 0 (Herbicidal rate of 5% or less (almost no effect))
G: green foxtail, herbicidal effect grade (green foxtail; 224 g/ha): 3 (Herbicidal rate of 40% or more and less than 70%)
Herbicidal effect, B: Japanese bulrush (Japanese bulrush; [10]): 0 (Herbicidal rate of 5% or less (almost no effect))
F: southern crabgrass, herbicidal effect grade (southern crabgrass [2]; 224 g/ha): 4 (Herbicidal rate of 70% or more and less than 90%)
Herbicidal effect, C: oval-leafed pondweed (oval-leafed pondweed [3]; [10]): 1 (Herbicidal rate of 5% or more and less than 20%)
N: redroot pigweed, herbicidal effect grade (redroot pigweed [4]; 224 g/ha): 4 (Herbicidal rate of 70% or more and less than 90%)
L: windgrass, herbicidal effect grade (windgrass; [10]): 2 (Herbicidal rate of 20% or more and less than 40%)
herbicidal effect rating, C: oval-leafed pondweed (oval-leafed pondweed [5]; AAH 224 g/ha): 3 (Herbicidal rate of 40% or more and less than 70%)
Herbicidal effect, A: late watergrass (late watergrass [6]; [10]): 2 (Herbicidal rate of 20% or more and less than 40%)
N: redroot pigweed, herbicidal effect grade (redroot pigweed [7]; [10]): 0 (Herbicidal rate of 5% or less (almost no effect))
Q: false cleavers, herbicidal effect grade (false cleavers; [10]): 0 (Herbicidal rate of 5% or less (almost no effect))
F: southern crabgrass, herbicidal effect grade (southern crabgrass [8]; [10]): 0 (Herbicidal rate of 5% or less (almost no effect))

CCCC(=O)Oc1c(C)nn(C)c(=O)c1-c1c(-c2ccccc2OCC)sc2cc(C)ccc12 [3-054]
I: wild oat, herbicidal effect grade (wild oat; [11]): 1 (Herbicidal rate of 5% or more and less than 20%)
herbicidal effect on barnyard grass (H) (barnyard grass; 304 g/ha): 5 (Herbicidal rate of 90% or more (almost completely withered))
P: chickweed, herbicidal effect grade (chickweed; [11]): 3 (Herbicidal rate of 40% or more and less than 70%)
M: velvetleaf, herbicidal effect grade (velvetleaf; [11]): 0 (Herbicidal rate of 5% or less (almost no effect))
R: persian speedwell, herbicidal effect grade (persian speedwell; [11]): 3 (Herbicidal rate of 40% or more and less than 70%)
herbicidal effect rating, A: late watergrass (late watergrass [1]; AAH 304 g/ha): 2 (Herbicidal rate of 20% or more and less than 40%)
G: green foxtail, herbicidal effect grade (green foxtail; 304 g/ha): 5 (Herbicidal rate of 90% or more (almost completely withered))
Herbicidal effect, B: Japanese bulrush (Japanese bulrush; [11]): 5 (Herbicidal rate of 90% or more (almost completely withered))
F: southern crabgrass, herbicidal effect grade (southern crabgrass [2]; 304 g/ha): 5 (Herbicidal rate of 90% or more (almost completely withered))
Herbicidal effect, C: oval-leafed pondweed (oval-leafed pondweed [3]; [11]): 4 (Herbicidal rate of 70% or more and less than 90%)
N: redroot pigweed, herbicidal effect grade (redroot pigweed [4]; 304 g/ha): 5 (Herbicidal rate of 90% or more (almost completely withered))
L: windgrass, herbicidal effect grade (windgrass; [11]): 3 (Herbicidal rate of 40% or more and less than 70%)
herbicidal effect rating, C: oval-leafed pondweed (oval-leafed pondweed [5]; AAH 304 g/ha): 3 (Herbicidal rate of 40% or more and less than 70%)
Herbicidal effect, A: late watergrass (late watergrass [6]; [11]): 5 (Herbicidal rate of 90% or more (almost completely withered))
N: redroot pigweed, herbicidal effect grade (redroot pigweed [7]; [11]): 1 (Herbicidal rate of 5% or more and less than 20%)
Q: false cleavers, herbicidal effect grade (false cleavers; [11]): 2 (Herbicidal rate of 20% or more and less than 40%)
F: southern crabgrass, herbicidal effect grade (southern crabgrass [8]; [11]): 4 (Herbicidal rate of 70% or more and less than 90%)

COc1cc(F)ccc1-c1sc2cc(C)ccc2c1-c1c(O)c(C)nn(C)c1=O [3-055]
I: wild oat, herbicidal effect grade (wild oat; [9]): 3 (Herbicidal rate of 40% or more and less than 70%)
herbicidal effect on barnyard grass (H) (barnyard grass; 320 g/ha): 5 (Herbicidal rate of 90% or more (almost completely withered))
P: chickweed, herbicidal effect grade (chickweed; [9]): 4 (Herbicidal rate of 70% or more and less than 90%)
M: velvetleaf, herbicidal effect grade (velvetleaf; [9]): 0 (Herbicidal rate of 5% or less (almost no effect))
R: persian speedwell, herbicidal effect grade (persian speedwell; [9]): 4 (Herbicidal rate of 70% or more and less than 90%)
herbicidal effect rating, A: late watergrass (late watergrass [1]; AAH 320 g/ha): 1 (Herbicidal rate of 5% or more and less than 20%)
G: green foxtail, herbicidal effect grade (green foxtail; 320 g/ha): 5 (Herbicidal rate of 90% or more (almost completely withered))
Herbicidal effect, B: Japanese bulrush (Japanese bulrush; [9]): 4 (Herbicidal rate of 70% or more and less than 90%)
F: southern crabgrass, herbicidal effect grade (southern crabgrass [2]; 320 g/ha): 5 (Herbicidal rate of 90% or more (almost completely withered))
Herbicidal effect, C: oval-leafed pondweed (oval-leafed pondweed [3]; [9]): 3 (Herbicidal rate of 40% or more and less than 70%)
N: redroot pigweed, herbicidal effect grade (redroot pigweed [4]; 320 g/ha): 5 (Herbicidal rate of 90% or more (almost completely withered))
L: windgrass, herbicidal effect grade (windgrass; [9]): 2 (Herbicidal rate of 20% or more and less than 40%)
herbicidal effect rating, C: oval-leafed pondweed (oval-leafed pondweed [5]; AAH 320 g/ha): 3 (Herbicidal rate of 40% or more and less than 70%)
Herbicidal effect, A: late watergrass (late watergrass [6]; [9]): 4 (Herbicidal rate of 70% or more and less than 90%)
N: redroot pigweed, herbicidal effect grade (redroot pigweed [7]; [9]): 0 (Herbicidal rate of 5% or less (almost no effect))
Q: false cleavers, herbicidal effect grade (false cleavers; [9]): 3 (Herbicidal rate of 40% or more and less than 70%)
F: southern crabgrass, herbicidal effect grade (southern crabgrass [8]; [9]): 3 (Herbicidal rate of 40% or more and less than 70%)
